Entries after “also recorded” stand apart in the source; their conditions may differ. Where two headings read alike, the source gives them in different places. Positions of bridges follow the written chain, without caps; N, C: chain ends. Non-standard residues stand in square brackets, D forms with d. Residues, ends and D or L forms follow the SMILES beside them. No end group written: not given here. *: point of attachment. Ileψ(thiazoline)Cys = CC[C@H](C)[C@H](N)C1=N[C@H](C(=O)*)CS1; NMeI = CC[C@H](C)[C@H](NC)C(=O)O; dOrn = NCCC[C@@H](N)C(=O)O; Nle = CCCC[C@H](N)C(=O)O; Orn = NCCC[C@H](N)C(=O)O; GABA = NCCCC(=O)O
Assays:
[1] = molecular target: T1, AT4 receptor (Bos taurus, UniProt F1N1Q8); test: 125I-AIV binding and competition, bovine adrenal cortical membranes
T1 sequence (F1N1Q8 1-1022): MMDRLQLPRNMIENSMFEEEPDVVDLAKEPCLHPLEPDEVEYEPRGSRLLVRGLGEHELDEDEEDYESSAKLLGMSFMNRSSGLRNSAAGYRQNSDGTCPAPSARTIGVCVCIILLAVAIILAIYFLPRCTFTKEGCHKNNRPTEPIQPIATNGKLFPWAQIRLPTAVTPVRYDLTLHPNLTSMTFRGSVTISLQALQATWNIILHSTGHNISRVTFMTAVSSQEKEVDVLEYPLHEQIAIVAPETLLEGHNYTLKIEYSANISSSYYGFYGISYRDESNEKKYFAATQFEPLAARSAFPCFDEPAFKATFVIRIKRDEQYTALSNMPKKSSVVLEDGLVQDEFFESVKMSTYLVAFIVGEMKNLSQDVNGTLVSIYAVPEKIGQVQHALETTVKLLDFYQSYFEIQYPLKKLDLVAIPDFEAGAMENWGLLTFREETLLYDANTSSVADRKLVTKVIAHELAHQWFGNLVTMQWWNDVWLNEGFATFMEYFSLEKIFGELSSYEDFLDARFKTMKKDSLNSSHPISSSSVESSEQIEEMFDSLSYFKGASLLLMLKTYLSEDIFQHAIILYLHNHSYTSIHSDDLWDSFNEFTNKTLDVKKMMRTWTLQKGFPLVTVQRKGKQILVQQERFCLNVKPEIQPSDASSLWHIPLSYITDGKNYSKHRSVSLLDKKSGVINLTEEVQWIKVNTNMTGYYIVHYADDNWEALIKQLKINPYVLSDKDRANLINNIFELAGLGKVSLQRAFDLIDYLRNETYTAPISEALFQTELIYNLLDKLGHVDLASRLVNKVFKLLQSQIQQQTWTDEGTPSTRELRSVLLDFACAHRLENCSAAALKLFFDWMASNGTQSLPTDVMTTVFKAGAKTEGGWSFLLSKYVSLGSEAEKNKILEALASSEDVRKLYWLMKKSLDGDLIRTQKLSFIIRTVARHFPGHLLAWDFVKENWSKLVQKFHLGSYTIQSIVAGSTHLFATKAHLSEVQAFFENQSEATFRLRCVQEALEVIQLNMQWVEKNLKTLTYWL

[2] = arterial and venous blood in man; cited from earlier work
[3] = molecular target: T1, AT4 receptor; test: 125I-AIV binding and competition, coronary venular endothelial cell (CVEC) membranes; set-up: species or system bovine
[4] = molecular target: T1, AT4 receptor; test: 125I-AIV binding and competition, solubilized bovine adrenal cortical receptor
[5] = molecular target: T2, AT1 receptor (AII receptor) (Bos taurus, UniProt P25104); assay type: binding, bovine; conditions: competition
T2 construct: from tissue; host or cells: bovine adrenal cortex membranes
T2 sequence (P25104 1-359): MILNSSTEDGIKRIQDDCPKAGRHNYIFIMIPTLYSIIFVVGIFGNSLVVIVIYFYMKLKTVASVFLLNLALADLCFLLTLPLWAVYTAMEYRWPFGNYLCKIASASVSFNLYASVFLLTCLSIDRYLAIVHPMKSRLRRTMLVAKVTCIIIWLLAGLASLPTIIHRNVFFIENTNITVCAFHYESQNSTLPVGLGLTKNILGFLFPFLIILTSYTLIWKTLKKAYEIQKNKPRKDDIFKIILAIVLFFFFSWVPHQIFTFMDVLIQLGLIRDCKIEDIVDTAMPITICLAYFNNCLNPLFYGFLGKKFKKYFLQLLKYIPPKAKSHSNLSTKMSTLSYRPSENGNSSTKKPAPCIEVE

[6] = test system: rat kidney; test: Renal cortical blood flow (laser doppler) and arterial pressure after infusion into the renal artery; assay type: in vivo
[7] = Metabolism by rat kidney membranes / homogenates
[8] = read-out: 125I-AIV Binding (Ki)

Compound: CC[C@H](C)[C@H](NC(=O)[C@@H](N)Cc1ccc(O)cc1)C(=O)N[C@@H](Cc1cnc[nH]1)C(=O)N1CCC[C@H]1C(=O)N[C@@H](Cc1ccccc1)C(=O)O [AII(4-8), YIHPF] (H-YIHPF-OH)
- Ki [1, 8]: > 1 µM
- half-lives [2]: 2.4 min
- Ki ([3]; competition of 0.5 nM 125I-AIV): 0.253 ± 0.0891 µM
- Ki [4]: > 1 µM

Compound: CC[C@H](C)[C@H](NC(=O)[C@@H](N)Cc1ccc(O)cc1)C(=O)N[C@@H](Cc1c[nH]cn1)C(=O)N1CCC[C@H]1C(=O)N[C@@H](Cc1ccccc1)C(=O)O [AII(4-8), YIHPF] (H-YIHPF-OH; N-terminus and C-terminus assumed)
- decrease in binding affinity relative to AIV [1]: 1000 fold

Compound: CC[C@H](C)[C@H](N)C1=N[C@H](C(=O)N[C@@H](CC(C)C)C(=O)N[C@H](CCC(=O)O)C(=O)N[C@H](C(=O)N[C@H]2CCCCNC(=O)[C@H](CC(N)=O)NC(=O)[C@@H](CC(=O)O)NC(=O)[C@H](Cc3cnc[nH]3)NC(=O)[C@@H](Cc3ccccc3)NC(=O)[C@H]([C@@H](C)CC)NC(=O)[C@@H](CCCN)NC2=O)[C@@H](C)CC)CS1 [Bacitracin, ICLEIKOIFHDD, reference compound] ({Ileψ(thiazoline)Cys}-L[dE]IK[dOrn]I[dF]H[dD]N; lactam 4-C)
- effect on binding of AIV ligand to the AT4 receptor [1]: inhibited

Compound: CC[C@H](C)[C@H](NC)C(=O)N[C@@H](Cc1ccc(O)cc1)C(=O)N[C@H](C(=O)N[C@@H](Cc1c[nH]cn1)C(=O)N1CCC[C@H]1C(=O)N[C@@H](Cc1ccccc1)C(=O)O)[C@@H](C)CC [CH3 -I1 YIHPF, N-methyl-Ile1 YIHPF] (H-[NMeI]YIHPF-OH)
- decrease in affinity relative to I1YIHPF ([1]; N-methylation of Ile1): 67 fold

Compound: CCCCc1nc(Cl)c(CO)n1Cc1ccc(-c2ccccc2-c2nn[nH]n2)cc1 [DuP 753, reference compound]
- Ki [1, 8]: > 100 µM
- Ki ([3]; unit inferred): > 100 µM
- Ki [5]: 0.031 µM
- Ki [4]: > 100 µM

Compound: DYIHPF
- Kd [1]: > 1 µM
- binding affinity for the AT4 receptor (in words) [1]: virtually no affinity

Compound: F1 YIHPF (FYIHPF)
- decrease in binding affinity relative to AIV [1]: 4 fold

Compound: GABA-YIHPF ([GABA]YIHPF)
- decrease in binding affinity relative to AIV [1]: 250 fold

Compound: IYIHPF [I1 YIHPF]
- binding affinity for the AT4 receptor (in words) [1]: only a slight change (an increase) in binding affinity; also recorded: nearly the same binding affinity

Compound: KYIHPI [KYIHPI6]
- binding affinity for the AT4 receptor (in words) [1]: lower affinity than the parent KYIHPF6
- binding affinity for the AT4 receptor (in words) ([1]; listed as Lys1 Ile6 -AIV): lower affinity than Lys1 -AIV

Compound: NleYIHPF ([Nle]YIHPF)
- maximum increase in renal blood flow ([6]; 0.05 pmole): 19%
- maximum increase in renal blood flow ([6]; 0.1 pmole): 19%
- maximum increase in renal blood flow ([6]; 10 pmole): 21%
- increase in renal blood flow ([6]; 100 pmole): 30%
- effect on arterial blood pressure (in words) ([6]; rat, in vivo): no effect on mean arterial pressure
- agonist / antagonist activity (in words) ([6]; renal blood flow response compared to AIV, listed as Nle1 -AIV): only a partial agonist
- agonist / antagonist activity (in words) ([6]; renal blood flow response compared to AIV, listed as Nle1 YIHPF): partial agonist

Compound: OrnYIHPF ([Orn]YIHPF)
- binding affinity for the AT4 receptor (in words) [1]: higher binding affinity than AIV

Compound: PYIHPF
- decrease in binding affinity relative to AIV [1]: 8 fold

Compound: V1 Y2 I3 H4 P5 F6 H7 (VYIHPFH) [AI(3-9)]
- binding affinity for the AT4 receptor (in words) [1]: did not alter binding significantly
- binding affinity for the AT4 receptor (in words) ([1]; listed as V1 Y2 I3 H4 P5 F6 H7): does not alter binding

Compound: V1 Y2 I3 H4 P5 F6 H7 L8 (VYIHPFHL) [AI(3-10)]
- decrease in binding affinity relative to AIV [1]: 2 fold

Compound: VF2 IHPF (VFIHPF)
- binding affinity for the AT4 receptor (in words) [1]: very low affinity

Compound: VPIHYF [Phe2 Tyr6 AIV, positions of the Phe and Tyr residues in AIV reversed]
- binding affinity for the AT4 receptor (in words) [1]: very low binding affinity

Compound: VYIH
- decrease in binding relative to VYIHP [1]: 21 fold
- Ki ([1]; read-out: Ki): > 0.5 µM

Compound: VYIHP [des Phe6 -AIV]
- binding affinity for the AT4 receptor (in words) [1]: did not alter binding significantly
- binding affinity for the AT4 receptor (in words) ([1]; listed as V1 Y2 I3 H4 P5): does not alter binding significantly
- increase in Ki (decrease in affinity) compared with AIV [3]: 7 fold
- Ki ([3]; competition of 0.5 nM 125I-AIV, read-out: Ki): 0.0073 ± 0.0012 µM
- binding to solubilized AT4 receptor (in words) ([4]; listed as VYIHP): retained AT4 receptor binding activity
- binding to solubilized AT4 receptor (in words) ([4]; listed as desPhe6 -AIV): still retained AIV binding activity

Compound: VYIHPI [VYIHPI6]
- binding affinity for the AT4 receptor (in words) [1]: higher affinity than the parent VYIHPF; also recorded: higher binding affinity for the AT4 receptor than AIV

Compound: V[D-Y2 ]IHPF [D-Y2 AIV]
- binding affinity for the AT4 receptor (in words) [1]: very low affinity; also recorded: low binding affinity
- Ki ([4]; read-out: Ki): 0.416 µM

Compound: ^+ H3 N-Val(CH2 NH)Tyr-Val(CH2 NH)-His-Pro-Phe-COO^- (H-VYVHPF-OH; also: reduced CH2-NH bonds: Val1-Tyr2, Val3-His4) [Val1 Val3 AIV]
- binding affinity for the AT4 receptor (in words) [1]: affinity equal to or better than VYIHPF; also recorded: equal or better affinity than AIV
- Ki ([4]; read-out: Ki): 0.00129 µM
- agonist / antagonist activity (in words) ([6]; rat, in vivo): potent antagonist of AT4 receptor activity
- effect of preinfusion on blood flow response to another ligand ([6]; rat, in vivo): completely blocks Lys^1 AIV-induced increases in blood flow
- effect on arterial blood pressure (in words) ([6]; rat, in vivo): did not alter blood pressure or renal blood flow
- effect on renal blood flow (in words) ([6]; rat, in vivo): did not alter blood pressure or renal blood flow
- stability on exposure to rat kidney (in words) [7]: totally resistant to enzymatic degradation
- stability on exposure to rat kidney (in words) ([7]; listed as divalinal AIV): enhanced metabolic stability
- remaining intact ([7]; rat kidney membranes, 4 hr, room temperature): 100%

Reference: patent US5854388A, “Angiotensin IV peptides and receptor” (Washington State University Research Foundation, priority 1994, dated 1998)
